Assay: in vitro
Conditions: human, hela cells, % viability
Work on Cc1ccc(C)c(NC(=O)CSc2nnc(CCc3ccccc3)n2C)c1 [CBK266365] yielded a viability at 28.5 h, 10 µM of 93.7%.
Molecule Cc1ccc(S(=O)(=O)NC(C)(C)CSc2nncn2C)cc1 [CBK266366] has a viability at 28.5 h, 10 µM of 104%.
O=C(COc1ccc(-c2cnc3ccccc3n2)cc1)c1cccc([N+](=O)[O-])c1 [CBK266367] showed a viability at 28.5 h, 10 µM of 86.8%.
For O=C(O)c1c[nH]nc1-c1ccc(Br)cc1 [CBK266368], the viability at 28.5 h, 10 µM was 91.5%.
Molecule c1ccc(-n2nnnc2CSc2nc3ccccc3s2)cc1 [CBK266372] has a viability at 28.5 h, 10 µM of 102%.
Molecule COc1ccc(C(=O)Nc2ccccc2-c2nc3ccccc3s2)cc1OC [CBK266376] has a viability at 28.5 h, 10 µM of 93.9%.
For O=S(=O)(NC1CCCCC1Sc1nnc(Nc2ccccc2)s1)c1ccccc1 (stereo not shown) [CBK266378], the viability at 28.5 h, 10 µM was 96.7%.
In the case of Cc1cc(C)c(S(=O)(=O)Nc2ccccc2C(=O)NCc2ccco2)c(C)c1 [CBK266382], the viability at 28.5 h, 10 µM is reported as 98.2%.
For N#C/C(=C/c1ccc(-c2ccc(S(N)(=O)=O)cc2)o1)S(=O)(=O)c1ccc(Cl)cc1 [CBK266383], the viability at 28.5 h, 10 µM was 110%.
Molecule Cc1ccc2nc(/C(C#N)=C/c3ccc(-c4ccc(S(N)(=O)=O)cc4)o3)[nH]c2c1 [CBK266386] has a viability at 28.5 h, 10 µM of 94%.
For CC(C)(CSc1nnc(Nc2ccccc2)s1)NS(=O)(=O)c1ccc(Cl)cc1 [CBK266388], the viability at 28.5 h, 10 µM was 108%.
In the case of CN1CCC(OC(=O)COc2ccc(Cl)cc2Cl)CC1 [CBK266389C], the viability at 28.5 h, 10 µM is reported as 91%.
Work on O=C(CN1C(=O)c2ccccc2S1(=O)=O)Nc1ccccc1-c1ccccc1 [CBK266390] yielded a viability at 28.5 h, 10 µM of 102%.
For O=S(=O)(NC1CCCCC1n1cc(-c2ccccc2)nn1)c1ccc(Cl)cc1 (stereo not shown) [CBK266391], the viability at 28.5 h, 10 µM was 99%.
COc1ccc(Cl)cc1NC(=O)CN(c1cc([N+](=O)[O-])ccc1C)S(C)(=O)=O [CBK266394] gave a viability at 28.5 h, 10 µM of 114%.
Work on NC(=O)c1ccccc1NC(=O)CCSc1ccc([N+](=O)[O-])cc1Cl [CBK266396] yielded a viability at 28.5 h, 10 µM of 80.1%.
Molecule C/C=C/c1ccc(OCCNC2CCCC2)c(OC)c1 [CBK266399G] has a viability at 28.5 h, 10 µM of 93.9%.
Molecule Clc1ccc(SCCCSc2ncccn2)cc1 [CBK266400] has a viability at 28.5 h, 10 µM of 96.8%.
For Cc1ccc2c(c1)C(c1c[nH]c3ccccc13)(c1c[nH]c3ccccc13)C(=O)N2C [CBK266401], the viability at 28.5 h, 10 µM was 103%.
In the case of Cn1cc(C(c2ccc(OCC(=O)O)cc2)c2cn(C)c3ccccc23)c2ccccc21 [CBK266403], the viability at 28.5 h, 10 µM is reported as 94.5%.
Molecule CC(C)(c1ccccc1)c1ccc(OCCCCn2cncn2)cc1 [CBK266405] has a viability at 28.5 h, 10 µM of 89.5%.
O=C(CCSc1ccc([N+](=O)[O-])cc1Cl)Nc1ccc(Br)c2cccnc12 [CBK266407] showed a viability at 28.5 h, 10 µM of 86.7%.
In the case of Cc1cccc(NC(c2ccc(C)s2)c2ccc3ccc(C)nc3c2O)n1 (stereo not shown) [CBK266408], the viability at 28.5 h, 10 µM is reported as 94.2%.
CCOC(=O)c1c(NC(=O)CSc2n[nH]c(N)n2)sc(C)c1C [CBK266412] gave a viability at 28.5 h, 10 µM of 94.4%.
For CCN(CC)CCN1C(=O)C(O)=C(C(=O)c2cc3ccccc3o2)C1c1ccccn1 (stereo not shown) [CBK266413], the viability at 28.5 h, 10 µM was 86.1%.
COc1cccc2cc(C(=O)C3=C(O)C(=O)N(CCN4CCOCC4)C3c3ccc(F)cc3)oc12 (stereo not shown) [CBK266414] showed a viability at 28.5 h, 10 µM of 93.3%.
In the case of Cc1cc(Cl)c(S(=O)(=O)Nc2ccc(I)cc2)cc1OCC(N)=O [CBK266418], the viability at 28.5 h, 10 µM is reported as 105%.
In the case of OCCNCc1cc(Br)ccc1OCc1ccc(F)cc1 [CBK266421C], the viability at 28.5 h, 10 µM is reported as 96%.
O=C(O)CCN1C(=O)c2ccc(NC(=O)CCc3ccccc3)cc2C1=O [CBK266422] gave a viability at 28.5 h, 10 µM of 95.2%.
Molecule Cc1ccc(OCc2nc(C#N)c(NCCCN3CCOCC3)o2)cc1 [CBK266423] has a viability at 28.5 h, 10 µM of 112%.
Cc1cc(C)c(S(=O)(=O)N2CCC(C(=O)Nc3ccc(C(N)=O)cc3)CC2)c(C)c1 [CBK266424] showed a viability at 28.5 h, 10 µM of 91.7%.
Cc1ccc(-c2noc(CN3CCN(C(c4ccccc4)c4ccccc4)CC3)n2)cc1 [CBK266425] showed a viability at 28.5 h, 10 µM of 96.5%.
Cc1ccc(OCC(=O)Nc2ncc(C(F)(F)F)cc2Cl)c(Br)c1 [CBK266426] gave a viability at 28.5 h, 10 µM of 95.1%.
In the case of Brc1ccc(-n2cc(-c3ccccc3)c3c(NCc4ccccn4)ncnc32)cc1 [CBK266427], the viability at 28.5 h, 10 µM is reported as 104%.
Molecule COc1cc(F)ccc1S(=O)(=O)NC1CC(C)(C)NC(C)(C)C1 [CBK266428] has a viability at 28.5 h, 10 µM of 112%.
With COc1cc(NC(=O)C(C)Oc2ccc(Cl)cc2C)c(C(=O)O)cc1OC (stereo not shown) [CBK266430] the viability at 28.5 h, 10 µM was 86%.
With COc1cc(CNC(C)(C)CO)ccc1OCc1ccc(Cl)cc1 [CBK266433C] the viability at 28.5 h, 10 µM was 92%.
CC(C)(C)NS(=O)(=O)c1ccc(OCC(=O)NCc2ccncc2)cc1 [CBK266434] showed a viability at 28.5 h, 10 µM of 97.3%.
Work on Cc1cc(I)cnc1NC(=O)CSc1ccc(Cl)cc1 [CBK266438] yielded a viability at 28.5 h, 10 µM of 94.3%.
Work on CCCN1C(=O)c2ccc(C(=O)Nc3cc(C(=O)O)cc(C(=O)O)c3)cc2C1=O [CBK266441] yielded a viability at 28.5 h, 10 µM of 97%.
Cn1nnc(NC(=O)COc2ccc(C3CCCCC3)cc2)n1 [CBK266442] gave a viability at 28.5 h, 10 µM of 95.9%.
Work on Cc1ccccc1NS(=O)(=O)c1cc(OCC(N)=O)c(C)cc1Cl [CBK266443] yielded a viability at 28.5 h, 10 µM of 85.9%.
Molecule O=C(CN(c1ccc2c(c1)OCCO2)S(=O)(=O)c1ccccc1)N1CCN(Cc2ccccc2)CC1 [CBK266444] has a viability at 28.5 h, 10 µM of 113%.
With Cc1ccc(S(=O)(=O)N2CCN(c3nc(NC(C)c4ccccc4)c4ccccc4n3)CC2)cc1 (stereo not shown) [CBK266448] the viability at 28.5 h, 10 µM was 106%.
Molecule CCOC(=O)c1cnc(SCc2cccc([N+](=O)[O-])c2)nc1N [CBK266449] has a viability at 28.5 h, 10 µM of 95%.
Molecule CS(=O)(=O)N1CCN(c2ccc(NC(=O)COc3ccc4ccccc4c3)cc2)CC1 [CBK266450] has a viability at 28.5 h, 10 µM of 96.8%.
Molecule Cc1cc(Cl)c(S(=O)(=O)N2CC(C)OC(C)C2)cc1OCC(N)=O (stereo not shown) [CBK266452] has a viability at 28.5 h, 10 µM of 109%.
For O=C(CSc1nc2[nH]ncc2c(=O)n1-c1ccccc1)Nc1ccc(F)c(Cl)c1 [CBK266453], the viability at 28.5 h, 10 µM was 97.6%.
Molecule O=C(CC1NCCNC1=O)Nc1cccc(Cl)c1 (stereo not shown) [CBK266454] has a viability at 28.5 h, 10 µM of 105%.
Molecule O=C(Nc1cc(Cl)ccc1C(=O)O)c1ccc2c(c1)C(=O)N(Cc1cccnc1)C2=O [CBK266455] has a viability at 28.5 h, 10 µM of 89.9%.
Cc1cc(NS(=O)(=O)c2cc(OCC(N)=O)c(C)cc2Cl)no1 [CBK266456] showed a viability at 28.5 h, 10 µM of 103%.
For Cc1ccc(-c2noc(CN3CCN(c4ccccn4)CC3)n2)cc1 [CBK266457], the viability at 28.5 h, 10 µM was 95.7%.
Molecule COCCNS(=O)(=O)c1cc(OCC(N)=O)c(C)cc1Cl [CBK266461] has a viability at 28.5 h, 10 µM of 99.3%.
In the case of Cc1cc(N2C(=O)c3ccc(Oc4ccc5c(c4)C(=O)N(c4cc(C)on4)C5=O)cc3C2=O)no1 [CBK266463], the viability at 28.5 h, 10 µM is reported as 85.8%.
Cc1ccc(Nc2nc(N)nc(CSc3nnc(-c4ccncc4)o3)n2)cc1 [CBK266464] showed a viability at 28.5 h, 10 µM of 97.7%.
CCN(CC)CCN1C(=O)C(O)=C(C(=O)c2ccc3c(c2)OCO3)C1c1cccnc1 (stereo not shown) [CBK266465] showed a viability at 28.5 h, 10 µM of 99.6%.
In the case of Cc1ccc(Nc2nc(N)nc(CSc3nccn3C)n2)cc1 [CBK266468], the viability at 28.5 h, 10 µM is reported as 113%.
In the case of O=C(CSc1nc2ccccc2c(=O)[nH]1)NCCO [CBK266469], the viability at 28.5 h, 10 µM is reported as 96.2%.
O=C(CSc1ncnc2scc(-c3ccc(Cl)cc3)c12)Nc1nsc(-c2ccccc2)n1 [CBK266473] gave a viability at 28.5 h, 10 µM of 96.6%.
For COc1ccc(C(=O)C2=C(O)C(=O)N(CCN(C)C)C2c2cccc([N+](=O)[O-])c2)cc1Cl (stereo not shown) [CBK266474], the viability at 28.5 h, 10 µM was 102%.
NS(=O)(=O)c1ccc(CCNc2ncnc3c2c(-c2ccccc2)cn3-c2ccc(F)cc2)cc1 [CBK266478] gave a viability at 28.5 h, 10 µM of 92%.
